Reference: ChEMBL document CHEMBL1201862, “PubChem BioAssay data set” (2004)
Activity calls are given as the source filed them.

Key:
[1] = target: Neurotensin receptor type 1 (Homo sapiens, UniProt P30989); type: functional;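 also: Image-based confirmatory dose-response assay measuring agonist activity at NTR1; NTR1-expressing U2OS osteosarcoma cells imaged for beta-arrestin GFP spot formation; agonist potency where compounds increase beta-arrestin recruitment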
[2] = Luminescence Cell-Based Dose Retest to Confirm Inhibitors of Cancer Stem Cells. [Related pubchem assays (depositor defined):AID2717, AID2721]; type: functional; settings: Homo sapiens
[3] = target: T1, Neuropeptide Y receptor type 1 (Homo sapiens, UniProt P25929); type: functional;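 also: HEK293 cells with a CNG channel challenged with NPY then isoproterenol; potency as antagonist that reverses NPY suppression of cAMP signal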
T1 sequence (P25929 whole entry): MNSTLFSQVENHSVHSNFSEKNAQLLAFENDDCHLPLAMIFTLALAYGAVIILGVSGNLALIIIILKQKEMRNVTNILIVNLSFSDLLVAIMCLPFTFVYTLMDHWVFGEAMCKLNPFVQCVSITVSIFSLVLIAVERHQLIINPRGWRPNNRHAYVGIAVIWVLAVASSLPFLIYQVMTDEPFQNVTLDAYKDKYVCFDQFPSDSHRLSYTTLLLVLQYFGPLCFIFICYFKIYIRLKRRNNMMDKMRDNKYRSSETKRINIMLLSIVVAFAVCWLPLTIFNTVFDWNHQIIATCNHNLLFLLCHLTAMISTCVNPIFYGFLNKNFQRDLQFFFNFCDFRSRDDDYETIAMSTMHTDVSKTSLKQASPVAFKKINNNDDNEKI

[4] = target: T2, Neuropeptide Y receptor type 2 (Homo sapiens, UniProt P49146); type: functional, cell-based;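 also: HEK293 cells expressing the receptor and a CNG channel; stimulus was NPY near EC95 followed by isoproterenol to raise cAMP; antagonist potency measured as restoring cAMP signal that NPY suppresses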
T2 sequence (P49146 whole entry): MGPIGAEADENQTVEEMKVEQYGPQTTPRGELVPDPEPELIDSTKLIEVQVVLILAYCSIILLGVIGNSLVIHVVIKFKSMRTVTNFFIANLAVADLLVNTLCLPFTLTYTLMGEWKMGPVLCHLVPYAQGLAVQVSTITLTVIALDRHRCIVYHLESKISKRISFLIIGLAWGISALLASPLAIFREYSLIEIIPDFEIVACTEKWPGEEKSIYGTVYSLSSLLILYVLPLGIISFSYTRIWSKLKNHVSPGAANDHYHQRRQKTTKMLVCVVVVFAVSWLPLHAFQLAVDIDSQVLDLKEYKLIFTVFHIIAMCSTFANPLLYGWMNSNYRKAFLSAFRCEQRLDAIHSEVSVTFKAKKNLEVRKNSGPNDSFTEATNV

[5] = target: Cytochrome P450 3A4 (Homo sapiens, UniProt P08684); settings: Potency;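 also: confirmatory qHTS run detecting inhibitors and substrates of CYP3A4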
Sequence of Cytochrome P450 3A4 (P08684 whole entry): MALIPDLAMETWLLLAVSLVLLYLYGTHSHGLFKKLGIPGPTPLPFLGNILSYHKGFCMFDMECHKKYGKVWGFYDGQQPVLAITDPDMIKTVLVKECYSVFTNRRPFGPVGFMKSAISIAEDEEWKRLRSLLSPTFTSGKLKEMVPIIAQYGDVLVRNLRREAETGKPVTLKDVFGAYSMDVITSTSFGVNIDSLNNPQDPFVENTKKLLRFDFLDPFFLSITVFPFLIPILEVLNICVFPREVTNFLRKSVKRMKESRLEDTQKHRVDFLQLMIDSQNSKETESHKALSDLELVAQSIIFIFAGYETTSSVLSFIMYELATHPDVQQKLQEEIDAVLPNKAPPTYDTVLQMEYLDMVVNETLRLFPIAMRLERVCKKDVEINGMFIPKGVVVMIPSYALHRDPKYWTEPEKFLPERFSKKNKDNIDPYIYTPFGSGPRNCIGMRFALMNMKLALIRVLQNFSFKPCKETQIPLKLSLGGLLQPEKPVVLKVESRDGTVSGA

[6] = target: G-protein coupled receptor 35 (Homo sapiens, UniProt Q9HC97); assay: GPR35 antagonists blocking zaprinast-driven arrestin recruitment, primary screen, imaging, U2OS, beta-arrestin-GFP, zaprinast agonist (AID 2058); type: functional;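 also: antagonist potency meaning inhibition of agonist-induced arrestin redistribution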
Sequence of G-protein coupled receptor 35 (Q9HC97 whole entry): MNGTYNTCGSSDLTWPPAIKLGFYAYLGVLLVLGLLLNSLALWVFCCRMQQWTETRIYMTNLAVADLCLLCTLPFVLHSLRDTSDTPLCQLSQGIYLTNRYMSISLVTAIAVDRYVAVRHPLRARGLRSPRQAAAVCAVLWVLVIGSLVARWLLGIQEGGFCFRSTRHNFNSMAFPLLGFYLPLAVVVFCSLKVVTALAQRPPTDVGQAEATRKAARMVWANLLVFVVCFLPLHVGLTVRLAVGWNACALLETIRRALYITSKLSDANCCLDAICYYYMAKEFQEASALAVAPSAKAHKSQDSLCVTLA

[7] = target: T3, Streptokinase A (Streptococcus pyogenes serotype M1, UniProt P10520); assay: S. pyogenes streptokinase expression inhibitors, potency, dose response, plasminogen activation absorbance, OD405 (AID 1914); type: functional, Streptococcus pyogenes M1 GAS;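 also: secreted streptokinase activity via plasminogen activation per viability signal from cell pellet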
T3 sequence (P10520 whole entry): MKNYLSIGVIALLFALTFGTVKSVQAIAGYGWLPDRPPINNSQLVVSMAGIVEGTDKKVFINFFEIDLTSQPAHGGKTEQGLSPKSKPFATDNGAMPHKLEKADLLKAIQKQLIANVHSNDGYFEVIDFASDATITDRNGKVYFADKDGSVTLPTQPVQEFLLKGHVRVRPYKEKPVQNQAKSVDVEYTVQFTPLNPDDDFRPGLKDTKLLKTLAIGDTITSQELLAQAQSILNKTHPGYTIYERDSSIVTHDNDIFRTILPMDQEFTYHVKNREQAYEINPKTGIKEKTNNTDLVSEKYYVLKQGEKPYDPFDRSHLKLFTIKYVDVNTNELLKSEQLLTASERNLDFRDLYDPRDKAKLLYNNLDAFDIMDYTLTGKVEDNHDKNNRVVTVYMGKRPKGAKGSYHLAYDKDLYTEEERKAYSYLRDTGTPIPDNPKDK

[8] = luciferase reporter signal reduction – luminescence, H4-C neuroglioblastoma cells, dose response (AID 2458); type: functional, cell-based;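 also: H4 neuroglioblastoma cells stably carrying a luciferase reporter gene fusion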
[9] = Luminescence Cell-Based Dose Response HTS to Identify Inhibitors of 5'UTR Stem-Loop Driven Prion Protein mRNA Translation in H4 Neuroglioblastoma Cells. [Related pubchem assays: 1827 (Project Summary), 1813 (Primary HTS)]; type: functional
[10] = inhibitors of firefly luciferase expression or activity, dose response, H4 neuroglioma cells, luminescence (AID 1990); type: functional, cell-based
[11] = inhibitors of SNCA 5'UTR-driven translation, confirmation, luminescence, H4 neuroglioblastoma cells, dose confirmation (AID 2454); type: functional, cell-based;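 also: H4 neuroglioblastoma cells carrying an alpha-synuclein 5'UTR luciferase reporter; potency for inhibition of the luciferase signal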
[12] = target: T4, Estrogen receptor (Homo sapiens, UniProt P03372); assay: potentiators of ERα–SRC-1 coactivator binding, dose response, biochemical, TR-FRET, ERα LBD (AID 737)
T4 sequence (P03372 whole entry): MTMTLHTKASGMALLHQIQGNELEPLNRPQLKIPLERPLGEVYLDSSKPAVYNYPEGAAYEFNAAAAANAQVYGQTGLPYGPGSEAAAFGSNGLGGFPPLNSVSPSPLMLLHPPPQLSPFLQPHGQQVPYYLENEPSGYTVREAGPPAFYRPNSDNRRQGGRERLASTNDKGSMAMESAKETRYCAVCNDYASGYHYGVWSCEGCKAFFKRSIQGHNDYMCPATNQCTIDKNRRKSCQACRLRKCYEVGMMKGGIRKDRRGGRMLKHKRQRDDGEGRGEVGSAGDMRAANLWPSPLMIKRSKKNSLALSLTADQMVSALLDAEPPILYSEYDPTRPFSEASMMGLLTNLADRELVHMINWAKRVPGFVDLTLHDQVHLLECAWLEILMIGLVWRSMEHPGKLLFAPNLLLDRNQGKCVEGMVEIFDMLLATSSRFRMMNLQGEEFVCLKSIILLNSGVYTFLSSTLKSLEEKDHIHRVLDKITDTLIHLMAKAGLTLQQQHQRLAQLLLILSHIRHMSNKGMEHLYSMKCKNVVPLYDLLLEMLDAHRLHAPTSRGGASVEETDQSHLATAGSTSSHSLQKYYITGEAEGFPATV

[13] = inhibitors of SNCA 5'UTR-driven reporter translation, confirmation, H4 neuroglioma cells, luminescence (AID 1988); type: functional, cell-based
[14] = tested on: Streptococcus sp. 'group A'; assay: growth inhibition of control SK(-) GAS strain, dose response, counter-screen for streptokinase expression inhibitor project, luminescence, kanamycin, BacTiterGlo, confirmation (AID 1900); type: functional, organism-based
[15] = cytotoxicity in KRAS-transformed pancreatic duct cells, primary screen, cell-based, fluorescence, HTS (AID 431); type: functional; settings: Homo sapiens;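 also: cell line used: HPDE-C7K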
[16] = cytotoxicity in HEK-293T cells, dose response, cytotoxicity control for TCR NF-kB inhibitor project, luminescence, T-cell screen hits (AID 489026); type: functional, cell-based;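 also: cells exposed to compound about 14 hours before the viability readout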
[17] = cells; type: functional, cell-based
[18] = cytotoxicity in HPDE-C7 cells, cell-based, fluorescence, HTS (AID 430); type: functional; settings: Homo sapiens
[19] = tested on: Streptococcus; assay: Group A Streptococcus viability loss, dose response, counter-screen for streptokinase expression inhibitor project, luminescence, BacTiterGlo (AID 1915); type: functional, organism-based;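 also: potency for reduction of bacterial viability or growth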
[20] = target: Melanin-concentrating hormone receptor 1 (Homo sapiens, UniProt Q99705); assay: Late-stage fluorescence-based counterscreen for antagonists of the G-protein coupled receptor 7 (GPR7): cell-based dose response assay to identify antagonists of the melanin-concentrating hormone receptor 1 (MCHR1). [Related pubchem assays (depositor defined):AID1861, AID1880, AID1952, AID2148, AID2251, AID2257, AID485339]; type: functional;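 also: stimulated with 30 nM MCH peptide agonist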
Sequence of Melanin-concentrating hormone receptor 1 (Q99705 whole entry): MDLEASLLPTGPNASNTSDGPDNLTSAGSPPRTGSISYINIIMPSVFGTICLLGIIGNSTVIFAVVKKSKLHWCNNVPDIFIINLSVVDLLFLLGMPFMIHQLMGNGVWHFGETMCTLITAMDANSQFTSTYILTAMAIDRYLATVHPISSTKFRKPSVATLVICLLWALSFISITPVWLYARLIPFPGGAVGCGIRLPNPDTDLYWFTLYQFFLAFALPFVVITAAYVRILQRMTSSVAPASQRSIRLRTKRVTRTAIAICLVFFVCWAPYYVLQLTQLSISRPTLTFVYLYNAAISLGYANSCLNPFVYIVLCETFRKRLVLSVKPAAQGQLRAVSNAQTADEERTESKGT

[21] = target: T5, SUMO-activating enzyme (Homo sapiens, UniProt Q9UBT2); assay: inhibitors of in vitro SUMOylation cascade, primary screen, biochemical, HTRF, uHTS (AID 2006); type: protein-complex assay
T5 sequence (Q9UBE0 whole entry): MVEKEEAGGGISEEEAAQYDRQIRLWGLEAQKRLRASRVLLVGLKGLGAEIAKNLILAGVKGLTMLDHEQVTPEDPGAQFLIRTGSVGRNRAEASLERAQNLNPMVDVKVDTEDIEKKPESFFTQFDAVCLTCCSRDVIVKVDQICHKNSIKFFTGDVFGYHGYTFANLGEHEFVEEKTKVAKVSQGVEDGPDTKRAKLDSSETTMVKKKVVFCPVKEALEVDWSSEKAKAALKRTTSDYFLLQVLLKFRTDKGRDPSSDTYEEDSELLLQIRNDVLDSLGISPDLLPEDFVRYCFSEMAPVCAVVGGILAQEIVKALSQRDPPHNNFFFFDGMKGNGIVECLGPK
T5 sequence (Q9UBT2 whole entry): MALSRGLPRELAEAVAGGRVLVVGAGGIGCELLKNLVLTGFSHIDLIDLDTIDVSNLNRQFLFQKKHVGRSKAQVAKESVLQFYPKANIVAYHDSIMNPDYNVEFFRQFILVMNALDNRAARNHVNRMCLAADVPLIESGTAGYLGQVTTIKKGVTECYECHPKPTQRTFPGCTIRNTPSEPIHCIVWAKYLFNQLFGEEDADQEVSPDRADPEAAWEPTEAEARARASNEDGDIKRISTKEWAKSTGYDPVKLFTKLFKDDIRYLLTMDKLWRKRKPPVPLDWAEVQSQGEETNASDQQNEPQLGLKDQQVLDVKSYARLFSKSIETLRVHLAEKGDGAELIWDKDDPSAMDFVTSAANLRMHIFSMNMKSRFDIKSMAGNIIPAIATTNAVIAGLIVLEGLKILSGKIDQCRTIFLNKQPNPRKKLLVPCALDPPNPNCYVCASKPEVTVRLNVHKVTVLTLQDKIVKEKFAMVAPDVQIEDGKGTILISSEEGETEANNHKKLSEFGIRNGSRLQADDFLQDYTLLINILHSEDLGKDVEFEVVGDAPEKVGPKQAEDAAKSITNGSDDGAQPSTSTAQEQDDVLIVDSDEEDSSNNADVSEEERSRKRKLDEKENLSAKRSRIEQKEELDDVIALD

[22] = target: T5, SUMO-activating enzyme; assay: SUMOylation inhibitor hit validation, confirmation, SUMOylation inhibitor project, biochemical, AlphaScreen (AID 2018); type: functional
[23] = target: T6, Small ubiquitin-related modifier 1 (Homo sapiens, UniProt P63165); assay: inhibitors of SUMO1 partner interactions, dose response, biochemical, FRET (AID 624383); type: functional; settings: read-out: IC50_Mean
T6 sequence (P63165 whole entry): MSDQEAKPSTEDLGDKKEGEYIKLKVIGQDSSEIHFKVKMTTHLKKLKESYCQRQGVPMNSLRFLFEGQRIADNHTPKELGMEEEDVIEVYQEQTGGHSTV

[24] = target: T6, Small ubiquitin-related modifier 1; assay: inhibitors of SUMO1 peptide binding, dose response, biochemical, fluorescence polarization, uHTS hits (AID 624382); type: functional; settings: read-out: IC50_Mean
[25] = target: Prothrombin (Bos taurus, UniProt P00735); assay: thrombin inhibition, dose response, biochemical, fluorescence polarization, uHTS hits (AID 602369); type: functional
[26] = target: 72 kDa type IV collagenase (Homo sapiens, UniProt P08253); assay: Dose Response validation of uHTS RPN11 inhibitor hits using a MMP-2 Fluorescence assay.; type: functional
Sequence of 72 kDa type IV collagenase (P08253 whole entry): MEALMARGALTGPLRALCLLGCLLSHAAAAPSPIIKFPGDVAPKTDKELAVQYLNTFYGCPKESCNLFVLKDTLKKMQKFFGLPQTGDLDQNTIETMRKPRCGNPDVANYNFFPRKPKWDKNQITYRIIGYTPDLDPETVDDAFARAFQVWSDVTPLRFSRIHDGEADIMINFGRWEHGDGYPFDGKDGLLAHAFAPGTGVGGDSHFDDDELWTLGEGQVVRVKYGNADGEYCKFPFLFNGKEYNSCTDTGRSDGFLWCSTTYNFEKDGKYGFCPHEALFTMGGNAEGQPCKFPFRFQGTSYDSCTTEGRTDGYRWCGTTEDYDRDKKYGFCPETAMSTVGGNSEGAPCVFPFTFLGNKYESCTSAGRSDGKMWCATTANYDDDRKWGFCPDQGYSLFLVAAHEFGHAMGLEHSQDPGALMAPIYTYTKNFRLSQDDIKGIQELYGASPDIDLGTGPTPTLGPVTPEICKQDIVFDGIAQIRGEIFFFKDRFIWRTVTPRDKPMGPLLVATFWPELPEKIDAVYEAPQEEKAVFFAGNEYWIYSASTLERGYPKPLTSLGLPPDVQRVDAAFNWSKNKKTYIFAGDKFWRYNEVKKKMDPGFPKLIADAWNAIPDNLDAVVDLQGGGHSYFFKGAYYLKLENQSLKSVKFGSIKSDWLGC

[27] = target: 26S proteasome non-ATPase regulatory subunit 14 (Homo sapiens, UniProt O00487); assay: inhibition of proteasome subunit RPN11 – biochemical, fluorescence polarization, uHTS hits, confirmation (AID 602368); type: functional
Sequence of 26S proteasome non-ATPase regulatory subunit 14 (O00487 whole entry): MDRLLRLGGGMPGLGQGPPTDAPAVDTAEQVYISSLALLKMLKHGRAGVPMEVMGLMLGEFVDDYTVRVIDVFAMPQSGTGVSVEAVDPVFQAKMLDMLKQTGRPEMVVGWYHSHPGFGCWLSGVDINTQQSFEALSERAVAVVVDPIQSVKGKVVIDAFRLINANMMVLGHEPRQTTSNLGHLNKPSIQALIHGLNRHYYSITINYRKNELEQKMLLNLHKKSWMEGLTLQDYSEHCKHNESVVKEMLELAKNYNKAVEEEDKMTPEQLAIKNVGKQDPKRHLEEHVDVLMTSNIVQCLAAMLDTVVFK

Sequence of Neurotensin receptor type 1 (P30989 whole entry): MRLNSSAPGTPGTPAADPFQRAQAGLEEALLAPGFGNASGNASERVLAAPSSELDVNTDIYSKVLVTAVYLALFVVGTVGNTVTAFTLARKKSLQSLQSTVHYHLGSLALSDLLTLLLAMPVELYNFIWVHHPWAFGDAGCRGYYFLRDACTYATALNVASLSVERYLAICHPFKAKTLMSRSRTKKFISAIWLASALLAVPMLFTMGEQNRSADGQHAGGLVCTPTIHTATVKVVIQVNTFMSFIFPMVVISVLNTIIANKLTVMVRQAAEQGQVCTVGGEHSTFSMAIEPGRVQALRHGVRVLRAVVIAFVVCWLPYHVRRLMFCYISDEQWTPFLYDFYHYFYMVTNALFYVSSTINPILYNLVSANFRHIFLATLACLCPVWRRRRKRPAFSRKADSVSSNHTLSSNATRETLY

CCCCNc1c(-c2cccc(Sc3ccc(OC)cc3)c2)nc2ccccn12
EC50 [1]: 27.5 µM (inactive)
AC50 [2]: 5.22 µM (active)

COC(=O)c1cc2occc2n1Cc1nc(-c2ccccc2Cl)oc1C
IC50 [3]: 7.7 µM (active)
IC50 [4]: 8.2 µM (active)

CCCn1c(-c2ccc(F)cc2)nc2c(NCC3CCN(C)CC3)nc(C)nc21
AC50 [5]: 15.8 µM (inconclusive)

CCOC(=O)c1c(-c2ccccc2)csc1NC(=O)/C(C#N)=C/c1ccc(O)c(OC)c1
IC50 [6]: 2.75 µM (active)

CC(=O)OC1CC2C(C)(C)C=CC(=O)[C@@]2(C)C2CC[C@@]3(C)C(c4ccoc4)OC(=O)C4OC43[C@]12C (stereo not given in full)
AC50 [5]: 15.8 µM (inconclusive)

Cc1cccc(NC(=O)c2nc[nH]c2C(=O)N[C@@H](Cc2ccccc2)C(=O)OC(C)(C)C)c1
EC50 [7]: > 150 µM (not active)
EC50 [1]: 17.9 µM (active)

CCN(CC)c1ccc(-c2nn3c(-c4ccccc4OC)nnc3s2)cc1
EC50 [7]: > 150 µM (not active)
EC50 [8]: 0.214 µM (active)
EC50 [9]: 8.94 µM (active)
EC50 [10]: < 0.1 µM (active)
EC50 [11]: 0.17 µM (active)
EC50 [12]: 18.2 µM (active)
EC50 [13]: < 0.1 µM (active)
EC50 [14]: 6.86 µM (active)
EC50 [15]: > 20 µM (not active)
IC50 [16]: 49.9 µM (inactive)
EC50 [17]: 0.346 µM (active)
EC50 [18]: > 20 µM (not active)
EC50 [19]: 8.67 µM (active)

COc1ccc(Oc2c(Cl)cnn(-c3cccc4c3CCCC4)c2=O)cc1
IC50 [20]: 4.1 µM (active)

Sc1nnc(-c2cc(-c3ccccc3)[nH]n2)n1/N=C/c1cccc(Cl)c1
EC50 [7]: > 150 µM (not active)
IC50 [21]: 11.1 µM (active)
IC50 [22]: 3.34 µM (active)
IC50 [23]: 5.8 µM (active)
EC50 [14]: 16.7 µM (active)
IC50 [24]: > 66.6 µM (inactive)
IC50 [25]: 33.8 µM (active)
IC50 [26]: > 100 µM (inactive)
IC50 [27]: 11.4 µM (active)
EC50 [19]: 84.4 µM (active)

COc1ccc(-c2[nH]nc3c2C(c2ccc(OC)c(OC)c2)N(c2ccccc2)C3=O)cc1 (stereo not given)
IC50 [3]: 7.8 µM (active)
IC50 [4]: 4.36 µM (active)
